Patent US9943566B2, “NF-κB inhibitor composition for skin health” (Geoffrey Brooks Consultants, LLC, priority 2016, dated 2018)

System: cultured human fibroblasts
Test: DNA microarray analysis of gene expression in cultured human fibroblasts treated with peptides
Assay type: cell-based
Conditions: for Peptide Fluorescent Intensity: TGFB / Peptide Fluorescent Intensity: TGFBR1 / Peptide Fluorescent Intensity: TGFBR3: TGF Family Molecules
Method: Expression levels for a variety of different genes treated with N-M-A-N-A-K (SEQ ID NO: 1) and A-N-V-A-E-N-A (SEQ ID NO: 2) were determined using DNA microarray analysis of cultured human fibroblasts at BioInnovation Laboratories, Inc., Lakewood, Colo.
The microarrays were scanned with an Axon GenePix 4100A Scanner with the scanning resolution set to 10 μm and analyzed with GenePix Pro software. During the initial scan the PMT gains for the scanner were adjusted such that the Cy5/Cy3 image count ratios were between 0.9 and 1.1.
To derive the standard curve for the assay, the relative fluorescent units versus the known RNA concentrations in μg/ml for the standards were plotted and subjected to regression analysis to establish the line that best fit the data points. Mean RFU values for the test materials and untreated samples were used to estimate the amount of RNA present in each sample.
Because the level of gene expression is related to the fluorescence intensity of the probed gene marker on the microarray, and since it is possible to have differences in labeling efficiency when making the Cy3 and Cy5 probes, it is essential to normalize the fluorescence measurements between the two respective dyes before examining changes in gene expression. As a result, fluorescence intensities for the microarrays were subjected to global normalization. The total fluorescent signal for both dyes was normalized with a correction factor so that the ratio of total intensities for both dyes was equal to one.
The resulting normalized total fluorescent signals for peptides, N-M-A-N-A-K (SEQ ID NO: 1) and A-N-V-A-E-N-A (SEQ ID NO: 2) with a variety of gene samples are shown in Table 1.

[1] = 10 ppm peptide, Additional Genes
[2] = 10 ppm peptide, Extracellular Matrix Genes Regulated by TGF Beta
[3] = 10 ppm peptide, Genes that Regulate Wound Healing (regulated by TGF beta)
[4] = 10 ppm peptide, Molecules that Regulate TGF Beta Expression/Activity
[5] = 10 ppm peptide, TGF Beta Signaling Pathway Molecules
[6] = 10 ppm peptide, Anti-Inflammatory

For ANVAENA (TGF-beta mimic), the “Peptide Fluorescent Intensity: LOX” value [1] was 0.974, the “Peptide Fluorescent Intensity: OGG1” value [1] was 1.364 and the “Peptide Fluorescent Intensity: PLOD” value [1] was 1.112. For the same substance, the “Peptide Fluorescent Intensity: PLOD2” value [1] was 0.445, the “Peptide Fluorescent Intensity: PLOD3” value [1] was 3.805 and the “Peptide Fluorescent Intensity: RAD23A” value [1] was 0.078. The “Peptide Fluorescent Intensity: RAD23B” value [1] was 1.218, the “Peptide Fluorescent Intensity: SIRT1” value [1] was 0.228 and the “Peptide Fluorescent Intensity: SIRT3” value [1] was 0.010. For the same substance, the “Peptide Fluorescent Intensity: TERT” value [1] was 0.198, the “Peptide Fluorescent Intensity: COL1A1” value [2] was 2.198 and the “Peptide Fluorescent Intensity: COL1A2” value [2] was 3.669. For the same substance, the “Peptide Fluorescent Intensity: COL3A1” value [2] was 2.987, the “Peptide Fluorescent Intensity: COL4A1” value [2] was 0.910 and the “Peptide Fluorescent Intensity: COL6A1” value [2] was 6.282. The “Peptide Fluorescent Intensity: COL6A2” value [2] was 2.902, the “Peptide Fluorescent Intensity: COL7” value [2] was 0.435 and the “Peptide Fluorescent Intensity: CTGF” value [2] was 0.076. The “Peptide Fluorescent Intensity: EGFR” value [2] was 1.133, the “Peptide Fluorescent Intensity: Fibronectin” value [2] was 1.407 and the “Peptide Fluorescent Intensity: IL-6” value [2] was 1.135. The “Peptide Fluorescent Intensity: MMP1” value [2] was 1.991, the “Peptide Fluorescent Intensity: MMP2” value [2] was 0.034 and the “Peptide Fluorescent Intensity: PDGFR alpha subunit” value [2] was 1.330. For the same substance, the “Peptide Fluorescent Intensity: TIMP1” value [2] was 4.567, the “Peptide Fluorescent Intensity: Tenascin (TNXB)” value [2] was 1.353 and the “Peptide Fluorescent Intensity: βIG-H3 (TGFBI)” value [2] was 2.069. The “Peptide Fluorescent Intensity: FGF2” value [3] was 0.912, the “Peptide Fluorescent Intensity: GM-CSF (CSF2)” value [3] was 0.014 and the “Peptide Fluorescent Intensity: VEGFA” value [3] was 0.798. For the same substance, the “Peptide Fluorescent Intensity: Activin A beta subunit (INHBB)” value [4] was 0.261, the “Peptide Fluorescent Intensity: BMP1” value [4] was 0.497 and the “Peptide Fluorescent Intensity: Follistatin (FST)” value [4] was 0.594. The “Peptide Fluorescent Intensity: Inhibin (INHA)” value [4] was 0.264, the “Peptide Fluorescent Intensity: LTBP (LTBP1)” value [4] was 0.652 and the “Peptide Fluorescent Intensity: MMP2” value [4] was 0.034. The “Peptide Fluorescent Intensity: YY1” value [4] was 0.713, the “Peptide Fluorescent Intensity: CBP (CREBBP)” value [5] was 0.375 and the “Peptide Fluorescent Intensity: SAR1A” value [5] was 1.905. The “Peptide Fluorescent Intensity: SP1” value [5] was 0.590, the “Peptide Fluorescent Intensity: Smad1” value [5] was 1.325 and the “Peptide Fluorescent Intensity: Smad2” value [5] was 0.824. The “Peptide Fluorescent Intensity: Smad3” value [5] was 1.202, the “Peptide Fluorescent Intensity: Smad4” value [5] was 0.374 and the “Peptide Fluorescent Intensity: Smad6” value [5] was 0.136. For the same substance, the “Peptide Fluorescent Intensity: Smad7” value [5] was 0.357, the “Peptide Fluorescent Intensity: p38MAPK (MAPK14)” value [5] was 0.594 and the “Peptide Fluorescent Intensity: p300 (EP300)” value [5] was 0.961. The “Peptide Fluorescent Intensity: TGFB” value (10 ppm peptide) was 0.113, the “Peptide Fluorescent Intensity: TGFBR1” value (10 ppm peptide) was 0.128 and the “Peptide Fluorescent Intensity: TGFBR3” value (10 ppm peptide) was 0.098. For the same substance, the “impact on anti-inflammatory genes” value (peptide alone, in words) was “does not impact anti-inflammatory genes significantly”.

In the case of “Asparagine-Methionine-Alanine-Asparagine-Alanine-Lysine (Asn-Met-Ala-Asn-Ala-Lys) [NMANAK]”, the “number of anti-inflammatory genes upregulated (COX1, COX411, COX7C, COX8A, DEFB4, IL10RB, IL26, IL27, ILF2, ILDR1)” value (10 ppm peptide) was no less than 10, the “Peptide Fluorescent Intensity: AQP3” value [1] was 3.294 and the “Peptide Fluorescent Intensity: EEF1A1 (cell growth)” value [1] was 6.301. The “Peptide Fluorescent Intensity: EEF1A2 (cancer cell growth)” value [1] was 0.067, the “Peptide Fluorescent Intensity: EEF1G (aminoacyl transferase - glutathione)” value [1] was 1.928 and the “Peptide Fluorescent Intensity: LOX” value [1] was 1.035. For the same substance, the “Peptide Fluorescent Intensity: OGG1” value [1] was 1.176, the “Peptide Fluorescent Intensity: PLOD” value [1] was 1.105 and the “Peptide Fluorescent Intensity: PLOD2” value [1] was 1.085. The “Peptide Fluorescent Intensity: PLOD3” value [1] was 4.092, the “Peptide Fluorescent Intensity: RAD23A” value [1] was 0.933 and the “Peptide Fluorescent Intensity: RAD23B” value [1] was 0.603. The “Peptide Fluorescent Intensity: SIRT1” value [1] was 0.410, the “Peptide Fluorescent Intensity: SIRT3” value [1] was 0.735 and the “Peptide Fluorescent Intensity: SIRT 5” value [1] was 1.482. The “Peptide Fluorescent Intensity: COX1” value [6] was 2.645, the “Peptide Fluorescent Intensity: COX7C” value [6] was 1.341 and the “Peptide Fluorescent Intensity: COX8A” value [6] was 1.803. The “Peptide Fluorescent Intensity: COX411” value [6] was 2.067, the “Peptide Fluorescent Intensity: DEFB4” value [6] was 4.798 and the “Peptide Fluorescent Intensity: IL10RB” value [6] was 1.889. For the same substance, the “Peptide Fluorescent Intensity: IL26” value [6] was 2.036, the “Peptide Fluorescent Intensity: IL27” value [6] was 2.257 and the “Peptide Fluorescent Intensity: ILDR1 (immunoglobin receptor)” value [6] was 1.546. The “Peptide Fluorescent Intensity: ILF2” value [6] was 4.120, the “Peptide Fluorescent Intensity: BMP7” value [2] was 2.000 and the “Peptide Fluorescent Intensity: COL1A2” value [2] was 3.992. The “Peptide Fluorescent Intensity: COL3A1” value [2] was 2.047, the “Peptide Fluorescent Intensity: COL6A1” value [2] was 3.446 and the “Peptide Fluorescent Intensity: COL6A2” value [2] was 1.705. For the same substance, the “Peptide Fluorescent Intensity: COL7” value [2] was 1.080, the “Peptide Fluorescent Intensity: CTGF” value [2] was 0.429 and the “Peptide Fluorescent Intensity: EGFR” value [2] was 1.159. The “Peptide Fluorescent Intensity: ELA2A (elastase)” value [2] was 3.148, the “Peptide Fluorescent Intensity: ELN” value [2] was 0.773 and the “Peptide Fluorescent Intensity: FGF3 (fibroblast growth factor)” value [2] was 2.000. For the same substance, the “Peptide Fluorescent Intensity: MMP1” value [2] was 1.164, the “Peptide Fluorescent Intensity: MMP2” value [2] was 0.785 and the “Peptide Fluorescent Intensity: PDGFR alpha subunit” value [2] was 1.608. For the same substance, the “Peptide Fluorescent Intensity: TIMP1” value [2] was 4.057, the “Peptide Fluorescent Intensity: Tenascin (TNXB)” value [2] was 1.752 and the “Peptide Fluorescent Intensity: FGF2” value [3] was 0.679. For the same substance, the “Peptide Fluorescent Intensity: VEGFA” value [3] was 1.385, the “Peptide Fluorescent Intensity: Activin A beta subunit (INHBB)” value [4] was 0.095 and the “Peptide Fluorescent Intensity: BMP1” value [4] was 0.837. For the same substance, the “Peptide Fluorescent Intensity: Follistatin (FST)” value [4] was 0.665, the “Peptide Fluorescent Intensity: Inhibin (INHA)” value [4] was 1.917 and the “Peptide Fluorescent Intensity: LTBP (LTBP1)” value [4] was 0.268. The “Peptide Fluorescent Intensity: YY1” value [4] was 1.378, the “Peptide Fluorescent Intensity: CBP (CREBBP)” value [5] was 0.743 and the “Peptide Fluorescent Intensity: SAR1A” value [5] was 1.632. The “Peptide Fluorescent Intensity: SP1” value [5] was 0.932, the “Peptide Fluorescent Intensity: Smad1” value [5] was 0.918 and the “Peptide Fluorescent Intensity: Smad2” value [5] was 0.857. For the same substance, the “Peptide Fluorescent Intensity: Smad3” value [5] was 0.882, the “Peptide Fluorescent Intensity: Smad4” value [5] was 0.454 and the “Peptide Fluorescent Intensity: Smad6” value [5] was 1.354. For the same substance, the “Peptide Fluorescent Intensity: Smad7” value [5] was 1.160, the “Peptide Fluorescent Intensity: p38MAPK (MAPK14)” value [5] was 1.057 and the “Peptide Fluorescent Intensity: TGFB” value (10 ppm peptide) was 1.224. For the same substance, the “Peptide Fluorescent Intensity: TGFBR1” value (10 ppm peptide) was 0.373, the “Peptide Fluorescent Intensity: TGFBR3” value (10 ppm peptide) was 1.229 and the “effect on AQP3 (aquaporin3) and EEf1G (glutathione) genes” value (10 ppm peptide, in words) was “upregulated”. For the same substance, the “effect on genes expressing extra-cellular matrix components, including collagen production genes COL1A2, COL3A1, COL6A1 and COL6A2” value (10 ppm peptide, in words) was “upregulation” and the “effect on genes that control TGF-β expression (YY1, INHA)” value (10 ppm peptide, in words) was “upregulating”.
